Legend:
[1] = system: THP-1 cells; experiment: Oxygen consumption rate (Seahorse XF96e), parental THP-1 cells; type: cell-based, human; conditions: 40 μM heme for one hour vs vehicle
Protocol: Measurements of OCR, ECAR, and MMP. Oxygen consumption rate (OCR) and extracellular acidification rate (ECAR) were measured using XF96e Seahorse Extracellular Flux Analyzer per manufacturer's protocol. To increase adherence of suspension cells, Seahorse plates were coated with Corning® Cell TAK (Catalog No. 354240). THP-1 and 7CKO cells were then attached to the plate according to the manufacturer's instructions. Cells were incubated in complete RPMI media with or without 40 μM heme. Changes in oxygen consumption were measured following treatment with oligomycin (5 μM), FCCP (2 μM), and rotenone (1 μM) plus antimycin A (1 μM). For BMDM, 5×10^5 cells/well were plated in 100 μL of BMDM media, 24 hours before the start of the assay. For OCR measurements, BMDM media was replaced with 180 μL of Seahorse XF Base Medium supplemented with 10 mM D-glucose, 1 mM sodium pyruvate, and 1 mM L-glutamine. For ECAR measurements, BMDM media was replaced with 180 μL of Seahorse XF RPMI Medium pH 7.4 supplemented with 2 mM L-glutamine. The Glycolysis Stress Test was performed using D-glucose, rotenone/antimycin A, and 2-deoxy-D-glucose at 10 mM, 0.5 μM, and 50 mM final concentration, respectively.

[2] = biological target: T1, MFSD7C interactions with ETC components (CYC1, NDUFA4, COX4i1, ATP5h, ATP5c1) (Mus musculus, UniProt Q91X85); experiment: Co-IP of HA-tagged MFSD7C with FLAG-tagged ETC components in transfected 293FT cells; type: cell-based, murine; conditions: 10 μM or 40 μM heme for one hour before cell lysis, increasing level
T1 construct: expressed in transfected cells; host or cells: 293FT cells
Protocol: Co-transfection and immunoprecipitation. For co-IP, HA-tagged MFSD7C was co-transfected with FLAG-tagged HMOX1 (Origene Catalog No. MR203944), CYC1, COX4I1, NDUFA4, ATP5h, ATP5c1 into 293FT cells using TransIT®-LT1 Transfection Reagent (Mirus). Thirty-six hours after transfection, the cells were lysed using cold Lysis Buffer containing 20 mM Tris-HCl (pH 7.4), 150 mM NaCl, 0.1% NP-40, 10% glycerol, proteinase inhibitor (Sigma Catalog No. 4693132001), and phosphatase inhibitors (Sigma Catalog No. 4906845001). The clear supernatants from the lysate were incubated with M2-magnetic beads conjugated with anti-FLAG antibody (Sigma Catalog No. M8823) for 2 hours at 4° C. Then the beads were washed twice and eluted by the 3× FLAG peptides (Sigma Catalog No. F4799).
To determine the effect of heme on MFSD7C interactions with ETC components, HMOX1 or SERCA2b, 293FT cells were transiently transfected with HA-tagged murine MFSD7C and FLAG-tagged murine CYC1, NDUFA4, COX4i1, ATP5h, ATP5c1, HMOX1 or SERCA2b. 35 hrs later, co-transfected cells were incubated with DMSO (vehicle) or 10 μM or 40 μM of heme for one hour before lysis. Cell lysates were precipitated with anti-HA antibody, eluted with HA peptide, further precipitated with anti-FLAG antibody, eluted with FLAG peptide, and then subjected to Western blotting with anti-HA and anti-FLAG antibodies. […]

[3] = system: interactions between MFSD7C^ΔN and CYC1, NDUFA4, COX4i1, ATP5h and ATP5c1; experiment: Co-IP of HA-tagged MFSD7C^ΔN with ETC components; type: cell-based, murine; conditions: heme treatment before lysis
Protocol: FIGS. 4A-4H show NTD of MFSD7C mediates heme effect on mitochondrial respiration. FIGS. 4A-4C show comparison of basal OCR (FIG. 4A), maximal OCR (FIG. 4B) and ECAR (FIG. 4C) of THP-1, 4B8, and 4B8^FL and 4B8^ΔN cells treated with vehicle or heme for 1 hour (n=18 separate experiments). […] Cells were incubated with FPT for 6 hrs, washed and reseeded in poly-lysine coated glass bottom dishes. After cells attached to the glass, medium containing 40 μM heme was added. Cells in the same field were imaged immediately and again 1 hour later. Relative FPT fluorescent intensities, normalized to THP-1, from three experiments are shown. (n=3 independent experiments). […] THP-1 cells were co-cultured with 4B8, 4B8^FL, or 4B8^ΔN in FPT solution for 6 hrs, washed and reseeded in poly-lysine coated glass bottom dishes. Cells were imaged by confocal laser-scanning microscopy. […] Representative images from three experiments are shown. Scale bar: 10 μm. […] THP-1, 4B8, 4B8^FL and 4B8^ΔN cells were treated with vehicle or heme for 1 hour and MMP was measured by using JC-10 Mitochondrial Membrane Potential Assay Kit followed by flow cytometry. […] Shown are representative Western blotting data (FIG. 4G) and quantification of band intensities from n=3 independent experiments (FIG. 4H). P-values were calculated using two-way ANOVA (*p<0.05, **p<0.01, ***p<0.005). […]

[4] = system: SERCA2b; experiment: SERCA2b protein level by Western blotting, THP-1 cells; type: cell-based, human; conditions: THP-1 cells following heme treatment vs parental THP-1 cells
Protocol: FIGS. 5A-5F show MFSD7C and heme regulate thermogenesis through SERCA2b in THP-1 cells. […] 30 hours later, MG132 was added into half of the cells and the other half was not treated. Another 35 hours later, some cells were treated with 40 μM heme for 1 hour before lysis. Cell lysates were immunoprecipitated with anti-FLAG antibody, and eluted, followed by anti-HA immunoprecipitation and elution. Total cell lysate and elute were subjected to Western blotting and probed with anti-SERCA2b or anti-MFSD7C antibodies. Shown are representative data from one of three experiments. […] 24 hrs later, cells were either not treated or treated with 10 μM MG132 for either 6 or 12 hours. The cells were lysed and subjected to FLAG pull-down and blotted with anti-MFSD7C, anti-SERCA2b and anti-ubiquitin antibodies. Shown are representative data from one of three experiments. […] Parental THP-1 cells were either not treated or treated with heme before lysis. Shown are representative data from one of four experiments. […] Shown are representative data from one of two experiments. […] Cells were washed and treated with 40 μM heme for one hour before flow cytometry. Representative FPT histograms from one of three experiments are shown. […] Shown are representative FPT histograms from one of three experiments.
Endogenous protein extraction. […]

T1 sequence (Q91X85 whole entry): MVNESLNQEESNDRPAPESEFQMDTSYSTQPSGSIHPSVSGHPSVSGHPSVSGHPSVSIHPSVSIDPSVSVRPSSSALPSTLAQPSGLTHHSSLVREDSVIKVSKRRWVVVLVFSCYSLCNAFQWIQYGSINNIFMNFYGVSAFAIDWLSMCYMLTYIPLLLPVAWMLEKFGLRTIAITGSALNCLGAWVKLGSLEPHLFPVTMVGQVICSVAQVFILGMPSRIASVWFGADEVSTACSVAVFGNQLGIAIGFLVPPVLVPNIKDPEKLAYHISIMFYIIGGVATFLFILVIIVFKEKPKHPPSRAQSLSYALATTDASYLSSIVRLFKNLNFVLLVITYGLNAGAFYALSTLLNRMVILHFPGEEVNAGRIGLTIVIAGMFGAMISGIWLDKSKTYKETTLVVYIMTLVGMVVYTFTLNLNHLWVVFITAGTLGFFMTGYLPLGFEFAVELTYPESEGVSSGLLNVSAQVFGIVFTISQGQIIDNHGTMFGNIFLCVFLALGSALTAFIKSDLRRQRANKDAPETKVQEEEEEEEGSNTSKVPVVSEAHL

With `C=CC1=C(C)c2cc3[n-]c(cc4[n-]c(cc5nc(cc1n2)C(C)=C5C=C)c(C)c4CCC(=O)O)c(CCC(=O)O)c3C.[Fe+2]` [heme] the “basal OCR” value [1] was “increased”, the “maximal OCR” value [1] was “increased” and the “ETC components co-precipitated with MFSD7C” value [2] was “less or very little ETC components co-precipitated with MFSD7C”. The “disruption of interactions between MFSD7C^ΔN and ETC components (co-IP)” value [3] was “failed to disrupt” and the SERCA2b level [4] was “significantly higher”.

From patent US20230313199A1, “TARGET FOR MODULATING BODY MASS” (Massachusetts Institute of Technology, priority 2020, published 2023)
